Data published in patent US10294229B2, “Heteroaryl substituted aminopyridine compounds” (BRISTOL-MYERS SQUIBB COMPANY, priority 2015, dated 2019).
pEC50, pIC50: −log10 of the molar value.

Tests used:
[1] = target: IRAK4 (Homo sapiens (Human), UniProt Q9NWZ3); test: IRAK4 Inhibition Assay; type: biochemical; conditions: ATP 500 μM; IRAK4 0.6 nM
How it was run: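 Enzyme 0.6 nM, ATP 500 μM, FL-peptide 1.5 μM, DMSO 1.6%; HEPES pH 7.2/MgCl2/Brij 35/DTT buffer. RT, 60 min, EDTA stop. Mobility-shift product/substrate ratio; % inhib vs no-enzyme and vehicle controls.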

[2] = Caco-2 Permeability Assay; type: in vitro ADME; conditions: human, Caco-2, test compound 3 μM
How it was run: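 Bidirectional permeability measured over 2 h at 37° C, compound dosed at 3 μM in the donor compartment (apical for absorptive, basolateral for secretive) with plain buffer as receiver.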

[3] = test system: Human whole blood stimulated with a TLR2 agonist (lipoteichoic acid), IL-6 levels; test: IRAK4 Whole Blood Assay; type: cell-based; conditions: lipoteichoic acid 10 μg/mL
How it was run: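 ACD-A-anticoagulated human whole blood was preincubated with compounds for 60 min at 37 °C under 5% CO2. It was then stimulated with 10 μg/mL lipoteichoic acid (final) in RPMI for 5 h. IL-6 in plasma supernatants was measured by flow cytometry bead assay.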

Chain of IRAK4 (Q9NWZ3 whole entry, species assumed): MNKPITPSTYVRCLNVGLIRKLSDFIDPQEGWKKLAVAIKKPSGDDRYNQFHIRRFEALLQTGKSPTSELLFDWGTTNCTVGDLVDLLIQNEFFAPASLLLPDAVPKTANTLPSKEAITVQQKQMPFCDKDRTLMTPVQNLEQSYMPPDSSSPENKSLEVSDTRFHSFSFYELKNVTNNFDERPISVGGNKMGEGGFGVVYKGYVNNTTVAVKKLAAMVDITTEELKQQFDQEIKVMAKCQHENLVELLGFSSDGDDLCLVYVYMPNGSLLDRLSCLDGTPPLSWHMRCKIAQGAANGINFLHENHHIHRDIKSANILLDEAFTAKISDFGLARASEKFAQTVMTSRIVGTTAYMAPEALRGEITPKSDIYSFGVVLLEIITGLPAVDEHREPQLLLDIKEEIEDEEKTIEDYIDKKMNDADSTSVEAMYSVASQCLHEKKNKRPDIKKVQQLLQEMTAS

| Compound | pIC50 [1] | Papp at 2 h, 3 µM [2] | pEC50 ([3]; Homo sapiens) | pEC50 [3] |
| --- | --- | --- | --- | --- |
| COC(=O)N1CCC(c2cn(-c3cnc(-n4ncc5cc(C#N)cnc54)cc3NC(C)C)nn2)CC1 [Example 338, methyl 4-(1-(6-(5-cyano-1H-pyrazolo[3,4-b]pyridin-1-yl)-4-(isopropylamino)pyridin-3-yl)-1H-1,2,3-triazol-4-yl)piperidine-1-carboxylate] | 8.22 | 17.9 ×10⁻⁶ cm/s | 6.42 | – |
| N#Cc1cnc2c(cnn2-c2cc(NC3CC3)c(-n3cc(C4CCOCC4)nn3)cn2)c1 [Example 348, 1-(4-(cyclopropylamino)-5-(4-(tetrahydro-2H-pyran-4-yl)-1H-1,2,3-triazol-1-yl)pyridin-2-yl)-1H-pyrazolo[3,4-b]pyridine-5-carbonitrile] | 7.89 | 41 ×10⁻⁶ cm/s | 6.77 | – |
| CC(C)Nc1cc(-n2ncc3cnc(N)nc32)ncc1-n1cc(CCC(C)(C)O)nn1 [Example 350, 4-(1-(6-(6-amino-1H-pyrazolo[3,4-d]pyrimidin-1-yl)-4-(isopropylamino)pyridin-3-yl)-1H-1,2,3-triazol-4-yl)-2-methylbutan-2-ol] | 8.22 | 6.4 ×10⁻⁶ cm/s | 6.55 | – |
| CC(F)Cc1cn(-c2cnc(-n3ncc4cc(C#N)cnc43)cc2NC2CC2)nn1 (stereo not drawn) [Example 354, 1-(4-(cyclopropylamino)-5-(4-(2-fluoropropyl)-1H-1,2,3-triazol-1-yl)pyridin-2-yl)-1H-pyrazolo[3,4-b]pyridine-5-carbonitrile] | 7.85 | 36 ×10⁻⁶ cm/s | – | 6.82 |
| CC(C)Nc1cc(-n2ncc3cc(C#N)cnc32)ncc1-n1cc(C2CCOCC2)nn1 [Example 355, 1-(4-(isopropylamino)-5-(4-(tetrahydro-2H-pyran-4-yl)-1H-1,2,3-triazol-1-yl)pyridin-2-yl)-1H-pyrazolo[3,4-b]pyridine-5-carbonitrile] | 8.15 | 48.7 ×10⁻⁶ cm/s | 6.62 | – |
| CC(C)Nc1cc(-n2ncc3cc(C#N)cnc32)ncc1-n1cc(C2CCN(S(C)(=O)=O)CC2)nn1 [Example 361, 1-(4-(isopropylamino)-5-(4-(1-(methylsulfonyl)piperidin-4-yl)-1H-1,2,3-triazol-1-yl)pyridin-2-yl)-1H-pyrazolo[3,4-b]pyridine-5-carbonitrile] | 8.15 | 5.6 ×10⁻⁶ cm/s | 6.44 | – |
| CC(C)(F)CCc1cn(-c2cnc(-n3ncc4cc(C#N)cnc43)cc2NC2COC2)nn1 [Example 363, 1-(5-(4-(3-fluoro-3-methylbutyl)-1H-1,2,3-triazol-1-yl)-4-(oxetan-3-ylamino)pyridin-2-yl)-1H-pyrazolo[3,4-b]pyridine-5-carbonitrile] | 8.22 | 15.6 ×10⁻⁶ cm/s | 6.48 | – |
| CC(C)(O)CCc1cn(-c2cnc(-n3ncc4cc(C#N)cnc43)cc2NC2CC(F)(F)C2)nn1 [Example 367, 1-(4-((3,3-difluorocyclobutyl)amino)-5-(4-(3-hydroxy-3-methylbutyl)-1H-1,2,3-triazol-1-yl)pyridin-2-yl)-1H-pyrazolo[3,4-b]pyridine-5-carbonitrile] | 8.05 | 3.6 ×10⁻⁶ cm/s | 6.64 | – |
| CCNc1cc(-n2ncc3cc(C#N)cnc32)ncc1-n1cc(CCC(C)(C)O)nn1 [Example 369, 1-(4-(ethylamino)-5-(4-(3-hydroxy-3-methylbutyl)-1H-1,2,3-triazol-1-yl)pyridin-2-yl)-1H-pyrazolo[3,4-b]pyridine-5-carbonitrile] | 8.15 | 6.7 ×10⁻⁶ cm/s | 6.57 | – |
| CC(C)(O)CCc1cn(-c2cnc(-n3ncc4cc(C#N)cnc43)cc2NCCCF)nn1 [Example 370, 1-(4-((3-fluoropropyl)amino)-5-(4-(3-hydroxy-3-methylbutyl)-1H-1,2,3-triazol-1-yl)pyridin-2-yl)-1H-pyrazolo[3,4-b]pyridine-5-carbonitrile] | 8.05 | 2.5 ×10⁻⁶ cm/s | 6.55 | – |
| CC(C)(O)CCc1cn(-c2cnc(-n3ncc4cc(C#N)cnc43)cc2NC(CF)CF)nn1 [Example 377, 1-(4-((1,3-difluoropropan-2-yl)amino)-5-(4-(3-hydroxy-3-methylbutyl)-1H-1,2,3-triazol-1-yl)pyridin-2-yl)-1H-pyrazolo[3,4-b]pyridine-5-carbonitrile] | 8.15 | < 1.5 ×10⁻⁶ cm/s | 6.62 | – |

These reach a higher pIC50 [1]. Values come first.

| pIC50 [1] | Papp at 2 h, 3 µM [2] | pEC50 ([3]; Homo sapiens) | pEC50 [3] | Compound |
| --- | --- | --- | --- | --- |
| 8.30 | < 1.5 ×10⁻⁶ cm/s | 6.41 | – | CC(=O)N1CC(c2cn(-c3cnc(-n4ncc5cc(C#N)cnc54)cc3NC(C)C)nn2)C1 [Example 339, 1-(5-(4-(1-acetylazetidin-3-yl)-1H-1,2,3-triazol-1-yl)-4-(isopropylamino)pyridin-2-yl)-1H-pyrazolo[3,4-b]pyridine-5-carbonitrile] |
| 8.52 | < 1.5 ×10⁻⁶ cm/s | 6.52 | – | CC(=O)NC1CCC(c2cn(-c3cnc(-n4ncc5cc(C#N)cnc54)cc3NC(C)C)nn2)CC1 (stereo not drawn) [Example 341, N-((1s,4s)-4-(1-(6-(5-cyano-1H-pyrazolo[3,4-b]pyridin-1-yl)-4-(isopropylamino)pyridin-3-yl)-1H-1,2,3-triazol-4-yl)cyclohexyl)acetamide] |
| 8.52 | 18.6 ×10⁻⁶ cm/s | 6.57 | – | CC(C)Nc1cc(-n2ncc3cc(C#N)cnc32)ncc1-n1cc(CCN2CCOCC2)nn1 [Example 349, 1-(4-(isopropylamino)-5-(4-(2-morpholinoethyl)-1H-1,2,3-triazol-1-yl)pyridin-2-yl)-1H-pyrazolo[3,4-b]pyridine-5-carbonitrile] |
| 8.40 | 30.6 ×10⁻⁶ cm/s | 6.43 | – | CC(C)Nc1cc(-n2ncc3cnc(N)nc32)ncc1-n1cc(CCC(C)(C)F)nn1 [Example 351, 1-(5-(4-(3-fluoro-3-methylbutyl)-1H-1,2,3-triazol-1-yl)-4-(isopropylamino)pyridin-2-yl)-1H-pyrazolo[3,4-d]pyrimidin-6-amine] |
| 8.52 | 4.5 ×10⁻⁶ cm/s | 6.60 | – | CC(C)(O)CCc1cn(-c2cnc(-n3ncc4cc(C#N)cnc43)cc2NC2CCC(F)C2)nn1 (stereo not drawn) [Example 364, 1-(4-((3-fluorocyclopentyl)amino)-5-(4-(3-hydroxy-3-methylbutyl)-1H-1,2,3-triazol-1-yl)pyridin-2-yl)-1H-pyrazolo[3,4-b]pyridine-5-carbonitrile] |
| 8.52 | < 1.5 ×10⁻⁶ cm/s | 6.39 | – | CC(C)(O)CCc1cn(-c2cnc(-n3ncc4cc(C#N)cnc43)cc2NC2CCOC2)nn1 [Example 365, (S)-1-(5-(4-(3-hydroxy-3-methylbutyl)-1H-1,2,3-triazol-1-yl)-4-((tetrahydrofuran-3-yl)amino)pyridin-2-yl)-1H-pyrazolo[3,4-b]pyridine-5-carbonitrile] |
| 8.52 | 3.2 ×10⁻⁶ cm/s | 6.74 | – | CC(C)(O)CCc1cn(-c2cnc(-n3ncc4cc(C#N)cnc43)cc2N[C@H]2CC[C@H](F)C2)nn1 [Example 368, 1-(4-(((1S,3S)-3-fluorocyclopentyl)amino)-5-(4-(3-hydroxy-3-methylbutyl)-1H-1,2,3-triazol-1-yl)pyridin-2-yl)-1H-pyrazolo[3,4-b]pyridine-5-carbonitrile] |
| 9.00 | < 1.5 ×10⁻⁶ cm/s | 6.89 | – | CC(C)Nc1cc(-n2ncc3cc(C#N)c(N)nc32)ncc1-n1cc(CCC(C)(C)O)nn1 [Example 371, 6-amino-1-(5-(4-(3-hydroxy-3-methylbutyl)-1H-1,2,3-triazol-1-yl)-4-(isopropylamino)pyridin-2-yl)-1H-pyrazolo[3,4-b]pyridine-5-carbonitrile] |
| 8.40 | 3.6 ×10⁻⁶ cm/s | 6.48 | – | CC(C)(O)CCc1cn(-c2cnc(-n3ncc4cc(C#N)cnc43)cc2N[C@H]2CC[C@@H](F)C2)nn1 [Example 372, 1-(4-(((1S,3R)-3-fluorocyclopentyl)amino)-5-(4-(3-hydroxy-3-methylbutyl)-1H-1,2,3-triazol-1-yl)pyridin-2-yl)-1H-pyrazolo[3,4-b]pyridine-5-carbonitrile] |
| 8.40 | 27.7 ×10⁻⁶ cm/s | 6.52 | – | CC(C)(F)CCc1cn(-c2cnc(-n3ncc4cc(C#N)cnc43)cc2N[C@@H]2CCOC2)nn1 [Example 373, (R)-1-(5-(4-(3-fluoro-3-methylbutyl)-1H-1,2,3-triazol-1-yl)-4-((tetrahydrofuran-3-yl)amino)pyridin-2-yl)-1H-pyrazolo[3,4-b]pyridine-5-carbonitrile] |
| 9.00 | 6.8 ×10⁻⁶ cm/s | 6.52 | – | CC(C)(O)CCc1cn(-c2cnc(-n3ncc4cc(C#N)cnc43)cc2N[C@@H]2CCC[C@@H]2F)nn1 [Example 375, 1-(4-(((1R,2S)-2-fluorocyclopentyl)amino)-5-(4-(3-hydroxy-3-methylbutyl)-1H-1,2,3-triazol-1-yl)pyridin-2-yl)-1H-pyrazolo[3,4-b]pyridine-5-carbonitrile] |
| 8.70 | < 1.5 ×10⁻⁶ cm/s | 6.80 | – | CC(C)Nc1cc(-n2ncc3cc(C#N)cnc32)ncc1-n1cc(CCC(C)(C)OC(=O)CN)nn1 [Example 378, 4-(1-(6-(5-cyano-1H-pyrazolo[3,4-b]pyridin-1-yl)-4-(isopropylamino)pyridin-3-yl)-1H-1,2,3-triazol-4-yl)-2-methylbutan-2-yl glycinate] |
| 8.30 | < 1.5 ×10⁻⁶ cm/s | 6.85 | – | CC(C)(O)CCc1cn(-c2cnc(-n3ncc4cc(C#N)cnc43)cc2NC2COCC2F)nn1 (stereo not drawn) [Example 379, 1-(4-((4-fluorotetrahydrofuran-3-yl)amino)-5-(4-(3-hydroxy-3-methylbutyl)-1H-1,2,3-triazol-1-yl)pyridin-2-yl)-1H-pyrazolo [3,4-b]pyridine-5-carbonitrile] |
